Patent US20220409620A1, “REDUCING IMMUNOGENICITY TO PEGLOTICASE” (Horizon Pharma Rheumatology LLC, priority 2016, published 2022)

Test system: adult patients with uncontrolled gout
Test: Serum uric acid (sUA) levels and sUA responder rate, open-label study of pegloticase with MTX (MIRROR OL)
Format: in vivo, human
Details: Month 6 sUA Responders
Protocol: The primary objective is to estimate the response rate during Month 6 (Weeks 20, 22, and 24), as measured by the sustained normalization of serum uric acid (SUA) to <6 mg/dL for at least 80% of the time during Month 6 in subjects receiving KXX with MTX.
The primary efficacy outcome endpoint is the sustained normalization of SUA to <6 mg/dL for at least 80% of the time during month 6 (weeks 20, 22, and 24) in subjects receiving KXX with MTX. […] Participants who achieve this endpoint were classified as “responders.” Serum uric acid (SUA) responders may also be defined as participants achieving and maintaining SUA <6 mg/dL for at least 80% of the time during Month 6 (Weeks 20, 22, and 24).
Blood samples may be collected prior to each pegloticase infusion for measurement of SUA levels using the Beckman Coulter AU System Uric Acid procedure. Participants were declared “non-responders” if there were SUA measures >6 mg/dL at 2 consecutive study visits beginning with the week 2 visit. […] This assumption and subsequent discontinuation of pegloticase was consistent with the protocol of large phase III randomized controlled trials and the product label. A formal stopping rule was 2 occasions of SUA levels of greater than 6 mg/dL.
Clinical Chemistry—Blood samples were collected prior to each pegloticase infusion for measurement of SUA levels (primary efficacy parameter) using the Beckman Coulter AU System Uric Acid procedure. In this procedure uric acid is converted to hydrogen peroxide. Hydrogen peroxide reacts with reagent to produce a chromophore which is read bichromatically at 660/800 nm. The amount of dye formed is proportional to the uric acid concentration in the sample.
Serum samples for measurement of SUA levels were collected at the Screening Visit, the Week −4 Visit (prior to the first dose of MTX), and the Week −2 Visit during the MTX Run-in Period; within 48 hours prior to each pegloticase infusion and after the end of each pegloticase infusion prior to discharge from the site during the Pegloticase+IMM Period; at the non-infusion Week 52/End of Study/Early Termination Visits and at the Post Treatment 3 and 6 Month Follow-up Visits. Additional serum samples for SUA levels were collected at optional non-infusion (Frequent Sampling) Visits at Weeks 1 and 7. […] Subjects with SUA level >6 mg/dL at 2 consecutive visits beginning at Week 2 visit discontinued treatment, completed the End of Pegloticase Infusion Visit procedures within 2 weeks and continued the subject visits according to the protocol (without treatment).
Efficacy analyses were performed using the modified intention-to-treat (mITT) population, defined as all enrolled subjects who received ≥1 dose of pegloticase. The proportion of Month 6 responders was summarized, along with a 95% confidence interval for the proportion. The proportion of Month 3 and overall (Months 3 and 6 combined) responders was analyzed similarly.
A subject was declared a non-responder if the subject had SUA level >6 mg/dL at 2 consecutive study visits beginning with the Week 2 Visit. In addition, a subject who withdraws from study treatment for any reason after the first dose of pegloticase in the KXX+MTX Period and prior to Month 6 (for the primary endpoint) or Month 3 (for the secondary endpoint) was considered a non-responder if SUA values were not collected at the planned time points.
Patients were administered oral MTX (15 mg/week) and folate (1 mg/day) 4 weeks prior to the first pegloticase infusion (Day 1) and throughout the pegloticase treatment period. Blood was drawn prior to each infusion to measure sUA level, monitor clinical parameters, and examine for ADA development. All patients followed typical IR prophylaxis protocols (fexofenadine one day before and the morning of each infusion and acetaminophen and IV corticosteroid the morning of each infusion).

[1] = End of Pegloticase Infusions Visit, n=2

pegloticase
Serum Uric Acid, Observed, Median (Day 1-Post-Infusion, n=8): 0.30 mg/dL | sUA <6 mg/dL, n (%) (Day 1-Post-Infusion, n=8): 8 (100%) | Serum Uric Acid, Change from Baseline, Mean (SD) [1]: −8.50 (1.556) mg/dL | Serum Uric Acid, Change from Baseline, Median [1]: -8.50 mg/dL | Serum Uric Acid, Observed, Mean (SD) [1]: 0.30 (0.000) mg/dL | Serum Uric Acid, Observed, Median [1]: 0.30 mg/dL | sUA <6 mg/dL, n (%) [1]: 2 (100%) | Serum Uric Acid, Change from Baseline, Mean (SD) (Week 1, n=4): −6.88 (1.836) mg/dL | Serum Uric Acid, Change from Baseline, Median (Week 1, n=4): -7.15 mg/dL | Serum Uric Acid, Observed, Mean (SD) (Week 1, n=4): 0.30 (0.000) mg/dL | Serum Uric Acid, Observed, Median (Week 1, n=4): 0.30 mg/dL | sUA <6 mg/dL, n (%) (Week 1, n=4): 4 (100%) | Serum Uric Acid, Change from Baseline, Mean (SD) (Week 2-Post-Infusion, n=11): −8.97 (2.810) mg/dL | Serum Uric Acid, Change from Baseline, Median (Week 2-Post-Infusion, n=11): -8.80 mg/dL | Serum Uric Acid, Observed, Mean (SD) (Week 2-Post-Infusion, n=11): 0.30 (0.000) mg/dL | Serum Uric Acid, Observed, Median (Week 2-Post-Infusion, n=11): 0.30 mg/dL | sUA <6 mg/dL, n (%) (Week 2-Post-Infusion, n=11): 11 (100%) | Serum Uric Acid, Change from Baseline, Mean (SD) (Week 2-Pre-Infusion, n=11): −8.64 (2.086) mg/dL | Serum Uric Acid, Change from Baseline, Median (Week 2-Pre-Infusion, n=11): -8.80 mg/dL | Serum Uric Acid, Observed, Mean (SD) (Week 2-Pre-Infusion, n=11): 0.63 (1.096) mg/dL | Serum Uric Acid, Observed, Median (Week 2-Pre-Infusion, n=11): 0.30 mg/dL | sUA <6 mg/dL, n (%) (Week 2-Pre-Infusion, n=11): 11 (100%) | Serum Uric Acid, Change from Baseline, Mean (SD) (Week 4-Post-Infusion, n=11): −8.97 (2.810) mg/dL | Serum Uric Acid, Observed, Mean (SD) (Week 4-Post-Infusion, n=11): 0.30 (0.000) mg/dL | Serum Uric Acid, Change from Baseline, Mean (SD) (Week 4-Pre-Infusion, n=11): −8.59 (2.884) mg/dL | Serum Uric Acid, Change from Baseline, Median (Week 4-Pre-Infusion, n=11): -8.60 mg/dL | Serum Uric Acid, Observed, Mean (SD) (Week 4-Pre-Infusion, n=11): 0.68 (1.043) mg/dL | Serum Uric Acid, Observed, Median (Week 4-Pre-Infusion, n=11): 0.30 mg/dL | sUA <6 mg/dL, n (%) (Week 4-Pre-Infusion, n=11): 11 (100%) | sUA <6 mg/dL, n (%) (Week 7, n=4): 4 (100%) | Serum Uric Acid, Change from Baseline, Mean (SD) (Week 8-Post-Infusion, n=11): −8.97 (2.810) mg/dL | Serum Uric Acid, Change from Baseline, Median (Week 8-Post-Infusion, n=11): -8.80 mg/dL | Serum Uric Acid, Observed, Mean (SD) (Week 8-Post-Infusion, n=11): 0.30 (0.000) mg/dL | Serum Uric Acid, Observed, Median (Week 8-Post-Infusion, n=11): 0.30 mg/dL | sUA <6 mg/dL, n (%) (Week 8-Post-Infusion, n=11): 11 (100%) | Serum Uric Acid, Change from Baseline, Mean (SD) (Week 8-Pre-Infusion, n=11): −8.91 (2.824) mg/dL | Serum Uric Acid, Change from Baseline, Median (Week 8-Pre-Infusion, n=11): -8.60 mg/dL | Serum Uric Acid, Observed, Mean (SD) (Week 8-Pre-Infusion, n=11): 0.37 (0.224) mg/dL | Serum Uric Acid, Observed, Median (Week 8-Pre-Infusion, n=11): 0.30 mg/dL | sUA <6 mg/dL, n (%) (Week 8-Pre-Infusion, n=11): 11 (100%) | Serum Uric Acid, Change from Baseline, Mean (SD) (Week 10-Post-Infusion, n=11): −8.97 (2.810) mg/dL | Serum Uric Acid, Change from Baseline, Median (Week 10-Post-Infusion, n=11): -8.80 mg/dL | Serum Uric Acid, Observed, Mean (SD) (Week 10-Post-Infusion, n=11): 0.30 (0.000) mg/dL | Serum Uric Acid, Observed, Median (Week 10-Post-Infusion, n=11): 0.30 mg/dL | sUA <6 mg/dL, n (%) (Week 10-Post-Infusion, n=11): 11 (100%) | Serum Uric Acid, Change from Baseline, Mean (SD) (Week 10-Pre-Infusion, n=11): −8.97 (2.810) mg/dL | Serum Uric Acid, Change from Baseline, Median (Week 10-Pre-Infusion, n=11): -8.80 mg/dL | Serum Uric Acid, Observed, Mean (SD) (Week 10-Pre-Infusion, n=11): 0.30 (0.000) mg/dL | Serum Uric Acid, Observed, Median (Week 10-Pre-Infusion, n=11): 0.30 mg/dL | sUA <6 mg/dL, n (%) (Week 10-Pre-Infusion, n=11): 11 (100%) | Serum Uric Acid, Change from Baseline, Mean (SD) (Week 12-Post-Infusion, n=10): −9.13 (2.911) mg/dL | Serum Uric Acid, Change from Baseline, Median (Week 12-Post-Infusion, n=10): -9.05 mg/dL | Serum Uric Acid, Observed, Mean (SD) (Week 12-Post-Infusion, n=10): 0.30 (0.000) mg/dL | Serum Uric Acid, Observed, Median (Week 12-Post-Infusion, n=10): 0.30 mg/dL | sUA <6 mg/dL, n (%) (Week 12-Post-Infusion, n=10): 10 (100%) | Serum Uric Acid, Change from Baseline, Mean (SD) (Week 12-Pre-Infusion, n=11): −8.98 (2.806) mg/dL | Serum Uric Acid, Change from Baseline, Median (Week 12-Pre-Infusion, n=11): -8.80 mg/dL | Serum Uric Acid, Observed, Mean (SD) (Week 12-Pre-Infusion, n=11): 0.30 (0.015) mg/dL | Serum Uric Acid, Observed, Median (Week 12-Pre-Infusion, n=11): 0.30 mg/dL | sUA <6 mg/dL, n (%) (Week 12-Pre-Infusion, n=11): 11 (100%) | Serum Uric Acid, Change from Baseline, Mean (SD) (Week 14-Post-Infusion, n=10): −9.01 (2.959) mg/dL | Serum Uric Acid, Change from Baseline, Median (Week 14-Post-Infusion, n=10): -9.05 mg/dL | Serum Uric Acid, Observed, Mean (SD) (Week 14-Post-Infusion, n=10): 0.30 (0.000) mg/dL
